Assay results: the supplement of paper PMC10307832

Key:
Assay in all cases: relative viability (nuclei count vs DMSO), 5 days (fraction); higher = more cells survive
[1] = compound: COc1cc2nccc(Oc3ccc(NC(=O)C4(C(=O)Nc5ccc(F)cc5)CC4)cc3)c2cc1OC [Cabozantinib] + Nc1ncn([C@H]2C[C@H](O)[C@@H](CO)O2)c(=O)n1 [Decitabine] (partner 2 µM)
Procedure, shortened: (§1)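 Lung cancer cell lines in 1536-well plates were dosed by pin tool the day after seeding, either with one drug alone or with a fixed anchor-drug dose plus five library-drug doses (not always all listed) in √10 steps. After 5 days, cells were fixed and their nuclei stained in one step (final 0.05% Triton X-100, 1% formaldehyde, 1 ug/ml Hoechst), then counted on 4× images. Relative viability is the nuclei count in treated wells divided by that in vehicle wells. Values are medians of duplicate plates.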

Kobe2602 + Foretinib = compound: C1=CC(=CC=C1NC(=S)NNC2=C(C=C(C=C2[N+](=O)[O-])C(F)(F)F)[N+](=O)[O-])F [Kobe2602] + COc1cc2c(Oc3ccc(NC(=O)C4(C(=O)Nc5ccc(F)cc5)CC4)cc3F)ccnc2cc1OCCCN1CCOCC1 [Foretinib] (partner 0.25 µM)
Procedure, shortened: as §1

[2] = compound: COc1cc2nccc(Oc3ccc(NC(=O)C4(C(=O)Nc5ccc(F)cc5)CC4)cc3)c2cc1OC [Cabozantinib] + Cc1cc(Nc2cc(N3CCN(C)CC3)nc(Sc3ccc(NC(=O)C4CC4)cc3)n2)n[nH]1 [Tozasertib] (partner 0.1 µM)
Procedure, shortened: as §1

Kobe2602 + Lapatinib = compound: C1=CC(=CC=C1NC(=S)NNC2=C(C=C(C=C2[N+](=O)[O-])C(F)(F)F)[N+](=O)[O-])F [Kobe2602] + CS(=O)(=O)CCNCc1ccc(-c2ccc3ncnc(Nc4ccc(OCc5cccc(F)c5)c(Cl)c4)c3c2)o1 [Lapatinib] (partner 2 µM)
Procedure, shortened: as §1

Cell Line	relative viability ([1]; first compound 0.02 µM)	relative viability ([1]; first compound 0.06325 µM)	relative viability ([1]; first compound 0.2 µM)	relative viability ([1]; first compound 0.6325 µM)	relative viability ([1]; first compound 2 µM)	relative viability (Kobe2602 + Foretinib; first compound 0.2 µM)	relative viability (Kobe2602 + Foretinib; first compound 0.6325 µM)	relative viability (Kobe2602 + Foretinib; first compound 2 µM)	relative viability (Kobe2602 + Foretinib; first compound 6.325 µM)	relative viability (Kobe2602 + Foretinib; first compound 20 µM)	relative viability ([2]; first compound 0.02 µM)	relative viability ([2]; first compound 0.06325 µM)	relative viability ([2]; first compound 0.2 µM)	relative viability ([2]; first compound 0.6325 µM)	relative viability ([2]; first compound 2 µM)	relative viability (Kobe2602 + Lapatinib; first compound 0.2 µM)	relative viability (Kobe2602 + Lapatinib; first compound 0.6325 µM)	relative viability (Kobe2602 + Lapatinib; first compound 2 µM)	relative viability (Kobe2602 + Lapatinib; first compound 6.325 µM)	relative viability (Kobe2602 + Lapatinib; first compound 20 µM)
LXF-289	0.353	0.395	0.392	0.433	0.377	0.959	0.943	0.984	0.941	1.01	0.206	0.198	0.171	0.218	0.208	0.872	0.891	0.88	0.874	0.873
NCI-H23		0.348	0.337	0.303	0.327	1.02	0.977	0.896	1.12	1		0.47	0.387	0.325	0.292	0.999	1.36	1.08	1.05	1.07
NCI-H322M	0.701	0.719	0.675	0.798	0.744	0.971	0.98	0.923	0.959	0.963	0.488	0.511	0.425	0.439	0.436	0.588	0.648	0.652	0.571	0.647
NCI-H358	0.226	0.224	0.214	0.218	0.233	0.721	0.756	0.605	0.698	0.845	0.106	0.0894	0.103	0.0924	0.108	0.448	0.485	0.451	0.451	0.452
NCI-H460	0.509	0.477	0.724	0.51	0.486	1.07	1	0.978	1.02	0.999	0.574	0.57	0.447	0.356	0.0953	0.962	0.983	1.06	1	0.999
NCI-H520	0.525	0.602	0.519	0.547	0.504	0.701	0.846	0.738	0.708	0.892	0.52	0.442	0.432	0.392	0.386	0.853	0.908	0.645	0.729	0.824
NCI-H596	1.06	1.39	1.07	1.01	0.98	0.851	0.708	0.957	0.915	0.846	0.95	0.8	0.924	0.905	0.767	1.18	1.19	1.05	0.934	1.17
NCI-H647	0.383	0.534	0.441	0.433	0.391	1.13	1.29	1.16	1.17	1.12	0.483	0.195	0.421	0.334	0.203	1.09	0.937	0.943	0.938	1.01
NCI-H650	0.315	0.372	0.45	0.338	0.304	1.1	1.01	1.05	1.05	0.907		0.746	0.756	0.789	0.706	0.852	1.07	1.19	1.04	0.99
NCI-H661	0.6	0.608	0.563	0.632	0.69	0.869	1.01	0.99	1.02	1.03	0.374	0.361	0.388	0.393	0.375	0.627	0.601	0.537	0.434	0.567
NCI-H727	0.595	0.976	0.881	0.865	0.907	0.855	0.991	0.919	1.1	0.873	0.53	0.777	0.513	0.513	0.554	0.885	0.783	0.879	0.996	0.986
NCI-H838	0.485	0.479	0.435	0.469	0.438	0.934	1.13	0.93	0.971	1.03	0.314	0.296	0.288	0.259	0.219	0.905	1.14	0.96	1	0.87
NCI-H1355	0.401	0.372	0.33	0.363	0.367	0.953	0.945	0.921	0.933	0.95	0.583	0.66	0.502	0.503	0.356	0.942	1.01	0.992	0.876	0.929
NCI-H1395	0.786	0.741	0.682	0.713	0.654	0.935	0.976	0.976	0.991	1.12	0.796	0.779	0.794	0.756	0.719	0.925	1.04	1.01	1.18	1.12
NCI-H1437	0.64	0.567	0.58	0.576	0.558	1.28	1.28	1.15	1.23	1.09	0.413	0.454	0.411	0.428	0.347	0.815	0.847	0.723	0.79	0.673
NCI-H1650	0.386	0.401	0.365	0.514	0.548	0.998	1.31	0.962	1.09	1.59	0.384	0.612	0.356	0.34	0.244	0.833	1.07	0.773	0.941	0.875

Cell Line	relative viability ([1]; first compound 0.02 µM)	relative viability ([1]; first compound 0.06325 µM)	relative viability ([1]; first compound 0.2 µM)	relative viability ([1]; first compound 0.6325 µM)	relative viability ([1]; first compound 2 µM)	relative viability (Kobe2602 + Foretinib; first compound 0.2 µM)	relative viability (Kobe2602 + Foretinib; first compound 0.6325 µM)	relative viability (Kobe2602 + Foretinib; first compound 2 µM)	relative viability (Kobe2602 + Foretinib; first compound 6.325 µM)	relative viability (Kobe2602 + Foretinib; first compound 20 µM)	relative viability ([2]; first compound 0.02 µM)	relative viability ([2]; first compound 0.06325 µM)	relative viability ([2]; first compound 0.2 µM)	relative viability ([2]; first compound 0.6325 µM)	relative viability ([2]; first compound 2 µM)	relative viability (Kobe2602 + Lapatinib; first compound 0.2 µM)	relative viability (Kobe2602 + Lapatinib; first compound 0.6325 µM)	relative viability (Kobe2602 + Lapatinib; first compound 2 µM)	relative viability (Kobe2602 + Lapatinib; first compound 6.325 µM)	relative viability (Kobe2602 + Lapatinib; first compound 20 µM)
NCI-H1651	0.465	0.743	0.565	0.616	0.599	0.764	0.89	0.762	0.776	0.868	0.861	0.739	0.754	0.706	0.48	0.871	0.981	0.836	0.775	0.764
NCI-H1666	0.649	0.754	0.712	0.711	0.752	0.961	0.952	0.973	0.963	1.04	0.628	0.644	0.622	0.619	0.673	0.639	0.659		0.468	0.592
NCI-H1734	0.545	0.53	0.523	0.508	0.53	0.843	0.938	0.978	0.901	0.855	0.292	0.284	0.275	0.286	0.214	1.06	1.11	1.14	1.26	1.03
NCI-H1755	0.729	0.73	0.757	0.717	0.742	0.948	0.914	0.915	0.879	0.868	0.673	0.666	0.618	0.529	0.539	1.01	1.03	0.951	1.02	1.09
NCI-H1793	0.4	0.555		0.469	0.489	0.847	0.803	0.684	0.728	0.863	0.663	0.427	0.271	0.257	0.169	1.03	0.663	0.621	0.623	0.78
NCI-H1915	0.262	0.264	0.253	0.248	0.256	1.11	1.09	1.08	1.02	1.06	0.46	0.447	0.471	0.435	0.416	0.998	1.04	0.969	1.02	1.03
NCI-H1944	0.477	0.483	0.42	0.481	0.466	0.891	0.91	0.847	0.885	0.976	0.275	0.274	0.238	0.257	0.238	0.878	0.944	0.837	0.857	0.787
NCI-H1975	0.406	0.399	0.412	0.418	0.327	0.99	0.915	0.788	0.823	0.931	0.761	0.78	0.699	0.435	0.295	0.886	0.956	0.767	0.756	0.852
NCI-H1993	0.71	0.681	0.519	0.576	0.458	0.789	0.748	0.689	0.687	0.642	0.546	0.625	0.565	0.572	0.542	0.718	0.727	0.783	0.814	0.875
NCI-H2009	0.305	0.384	0.447	0.394	0.405	1.15	1.32	1.21	1.19	1.19	0.827	0.889	0.768	0.699	0.668	0.878	1.14	0.895	1.04	0.871
NCI-H2023	0.261	0.235	0.239	0.234	0.24	0.931	0.803	0.825	0.931	0.933	0.401	0.437	0.301	0.232	0.15	0.833	0.914	0.811	0.815	0.739
NCI-H2085	0.583	0.549	0.58	0.626	0.642	0.909	1.01		1.12	0.879	0.87	0.852	0.818	0.655	0.527	0.749	0.751	0.779	0.776	0.879
NCI-H2087	0.311	0.279	0.303	0.306	0.212	1.09	1.18	1.07	1.11	1.18	0.271	0.24	0.225	0.248	0.204	0.879	1.01	1.26	0.957	1.04
NCI-H2126	0.531	0.546	0.618	0.643	0.59	1.17	1.25	1.07	0.996	1.01	0.865	0.937	0.816	0.814	0.848	0.751	0.775	0.778	0.725	0.759
NCI-H2170	0.436	0.465	0.446	0.487	0.458	0.966	1.04	1.01	1.01	0.963	0.738	0.8	0.733	0.748	0.734	0.282	0.261	0.262	0.272	0.303
NCI-H2347	0.66	0.667	0.601	0.609	0.516	1.32	1.38	0.83	0.63	0.868	0.572	0.526	0.575		0.392	0.939	0.963	0.913	0.988	0.909
